“And” between values parts separate entries of the source, which are not always exact repeats. Equal values may be shown once.
Key:
[1] = target: Eubacterium sp. CAG: 76 GUS (Eubacterium sp. CAG:76, UniProt Z9TO06ZFY0); assay: In vitro IC50 assay (TCS-G to TCS conversion, HPLC); format: biochemical; conditions: Fig. 4c, triplicate
R. gnavus 3 GUS = R. gnavus 3 GUS (Mediterraneibacter gnavus, UniProt Z9UC37PQH0); assay: as above; format: biochemical
[2] = system: enzymes extracted from human fecal samples; assay: In fimo inhibition assay (TCS-G processing by human fecal extracts); format: biochemical; conditions: for % Inhibition: Fig. 4d, triplicate
Experimental: Fecal extracts were prepared and proteomic analysis was performed exactly as previously described. In total, 10 g of frozen human fecal sample was thawed and added to 25 mL extraction buffer (25 mM HEPES, 25 mM NaCl pH 6.5 with Roche Complete protease inhibitor tablet) and 0.5 g autoclaved garnet beads. The mixture was vortexed until homogenous and centrifuged at low speed (300 × g for 5 min at 4 °C). The supernatant was decanted. In all, 25 mL buffer was added to the pellet and the vortex and centrifugation steps repeated. The supernatants from these steps were then combined and centrifuged at low speed for two more cycles. The resultant supernatant was sonicated twice using 1 s pulses for 1.5 min and the lysate was centrifuged at 17,000 × g for 20 min in a Beckman Coulter J2-HC centrifuge. The decanted lysate was then washed with several exchanges of extraction buffer to remove metabolites and small molecules. Total protein concentration was quantitated using a Bradford assay. The fecal lysate was diluted to 1 mg/mL concentration and snap-frozen in small aliquots.
Reaction mixtures contained 5 µL fecal extract (0.1 mg/mL final), 10 µL TCS-G (200 µM final), 5 µL GUSi (10, 1, or 0.1 µM final), and 30 µL assay buffer (25 mM HEPES, 25 mM NaCl, pH 6.5). Reactions were quenched at 30 min with 50 µL 25% trichloroacetic acid. Samples were centrifuged 20 min at 16,000 × g in a tabletop centrifuge, and the supernatant was analyzed via the same HPLC method described for the catalytic efficiency assay. Controls contained 5 µL buffer in place of GUSi. Inhibition was calculated using Eq. 1.

C57BL/6 mice = assay: Effects of GUSi on gut inflammation in mice not stimulated with DSS; format: in vivo; design: TNF (Fig.S12e) / IL-6 (Fig.S12e) / IL-10 (Fig.S12e) / MCP-1 (Fig.S12e): unit not given here
MC38 cells = assay: Cell proliferation assay (MTT); format: cell-based, mouse
Experimental: Mouse (MC38) or human (Caco2 and HCT-116) intestinal cells were grown in DMEM medium fortified with 10% FBS (EMD Millipore Corporation). The cells were seeded in 96-well plates, then treated with GUSi or vehicle (0.2% v/v DMSO) for 24 h. Cell viability was determined using an MTT assay.
Fig. S14. GUSi treatment has little effect on the proliferation of mouse or human intestinal cells in vitro.
Mouse (MC38) or human (Caco2 and HCT-116) intestinal cells were treated with GUSi or vehicle (0.2% v/v
DMSO) for 24 h, then cell viability was analyzed using a MTT assay. The data are mean ± SEM, n = 5-6 per

[3] = Target engagement: GUSi in colon tissue and TCS to TCS-G ratio in colon digesta by LC-MS/MS; format: in vivo, mice; conditions: for GUSi in colon tissue: GUSi-treated mice
Experimental: After another 3 weeks, the mice were stimulated with 2% DSS (molecular weight = 36–50 KDa, MP Biomedicals, Solon, OH) in drinking water for 6 days to induce colitis. At end of the experiment, the mice were sacrificed for analysis.
Fig. S15. Orally dosed GUSi reaches the mouse colon and suppresses conversion of TCS -G to TCS. a.
mice were stimulated with DSS to induce colitis. The final GUSi was dosed on day 25 and mice were sacrificed
for analysis on day 27. b. GUSi is detected in the mouse colon 2 days after the final dose of the inhibitor. c.
GUSi treatment reduces the ratio of TCS to TCS-G in colon digesta.
per group. NA: no TCS or TCS-G detected.

[4] = Solubility in water (statement); format: physicochemical; conditions: authors' reply to reviewers
[5] = system: epithelial cells in the ileum, proximal or distal colon; design: method as in PMID 32170007; conditions: proximal or distal colon of the treated mice; cited from earlier work
fecal microbiota = assay: 16S rRNA sequencing of fecal microbiota of GUSi-treated mice; conditions: 1 mg/kg GUSi via oral gavage
mouse fecal bacteria = assay: Conversion of TCS-G to TCS by anaerobically cultured mouse fecal bacteria in vitro; format: in vitro ADME; conditions: from TCS-G, replicates
[6] = cited from earlier work
[7] = system: Fp2-L1 GUS mutant proteins; assay: Catalytic efficiency assay, wild-type and mutant Fp2-L1 GUS; format: biochemical, F. prausnitzii; conditions: Fig. 3h, replicates 1-3
[8] = GUSi 1.23457 uM, Fig. 4c, triplicate
[9] = GUSi 3.7037 uM, Fig. 4c, triplicate
[10] = GUSi 11.1111 uM, Fig. 4c, triplicate
[11] = GUSi 33.3333 uM, Fig. 4c, triplicate
[12] = GUSi 100 uM, Fig. 4c, triplicate
[13] = 1 mg/kg GUSi via oral gavage, 3- to 4-week treatment
[14] = cytokine level, individual mice, no DSS
[15] = gene expression, individual mice, no DSS

Sequence of R. gnavus 3 GUS (Z9UC37PQH0 1-754): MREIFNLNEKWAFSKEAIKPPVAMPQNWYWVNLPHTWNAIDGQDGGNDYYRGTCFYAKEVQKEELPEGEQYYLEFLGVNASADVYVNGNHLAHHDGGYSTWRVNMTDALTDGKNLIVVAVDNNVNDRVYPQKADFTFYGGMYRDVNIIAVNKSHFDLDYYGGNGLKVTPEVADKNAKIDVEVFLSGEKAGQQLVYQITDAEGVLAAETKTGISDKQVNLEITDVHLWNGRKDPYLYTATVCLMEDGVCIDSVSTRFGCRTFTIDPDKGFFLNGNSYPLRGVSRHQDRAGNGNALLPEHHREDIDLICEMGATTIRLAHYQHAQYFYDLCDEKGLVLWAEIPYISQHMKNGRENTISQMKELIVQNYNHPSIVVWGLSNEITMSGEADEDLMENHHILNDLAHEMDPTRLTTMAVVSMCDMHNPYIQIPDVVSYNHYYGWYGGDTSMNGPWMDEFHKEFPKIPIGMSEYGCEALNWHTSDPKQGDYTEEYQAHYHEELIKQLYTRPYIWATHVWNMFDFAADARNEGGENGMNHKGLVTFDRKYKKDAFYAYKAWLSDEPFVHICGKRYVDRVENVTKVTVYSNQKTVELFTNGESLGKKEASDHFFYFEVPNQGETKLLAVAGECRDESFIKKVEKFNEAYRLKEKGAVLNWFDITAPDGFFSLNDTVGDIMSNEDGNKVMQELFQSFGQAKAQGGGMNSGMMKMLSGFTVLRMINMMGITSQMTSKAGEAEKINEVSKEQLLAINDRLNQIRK
Sequence of Eubacterium sp. CAG: 76 GUS (Z9TO06ZFY0 1-737): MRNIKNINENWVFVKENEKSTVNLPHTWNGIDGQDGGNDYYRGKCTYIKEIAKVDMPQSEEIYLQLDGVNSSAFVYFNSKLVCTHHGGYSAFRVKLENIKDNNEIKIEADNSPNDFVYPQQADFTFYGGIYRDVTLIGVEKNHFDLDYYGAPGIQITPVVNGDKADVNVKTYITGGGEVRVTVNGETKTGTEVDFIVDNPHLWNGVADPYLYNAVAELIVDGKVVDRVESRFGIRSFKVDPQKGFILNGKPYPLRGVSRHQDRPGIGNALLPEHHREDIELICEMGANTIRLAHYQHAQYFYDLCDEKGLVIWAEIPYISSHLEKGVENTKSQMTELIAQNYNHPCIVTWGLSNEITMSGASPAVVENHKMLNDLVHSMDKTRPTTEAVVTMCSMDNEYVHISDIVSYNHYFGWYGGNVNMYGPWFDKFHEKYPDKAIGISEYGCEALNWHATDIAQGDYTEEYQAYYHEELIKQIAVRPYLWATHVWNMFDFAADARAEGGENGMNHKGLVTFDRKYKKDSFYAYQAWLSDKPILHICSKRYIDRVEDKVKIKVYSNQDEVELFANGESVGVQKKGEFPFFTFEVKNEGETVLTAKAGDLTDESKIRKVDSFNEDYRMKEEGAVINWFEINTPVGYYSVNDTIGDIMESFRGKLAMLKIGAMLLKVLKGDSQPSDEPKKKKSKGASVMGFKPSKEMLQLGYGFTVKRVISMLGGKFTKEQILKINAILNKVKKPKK

C1CCc2c(c(N3CCOCC3)nc3sc4c(N5CCNCC5)nnnc4c23)C1 [GUSi, UNC10201652]
inhibition at 11.1111 µM ([1]; GUSi 11.1111 uM): 57.2% | inhibition at 33.3333 µM ([1]; GUSi 33.3333 uM): 73.6% | inhibition at 100 µM ([1]; GUSi 100 uM): 84.1% | R. gnavus 3 GUS % inhibition (R. gnavus 3 GUS; GUSi 0.0457247 uM, Fig. 4c, triplicate): -1.753% and -3.75% and 4.591% | R. gnavus 3 GUS % inhibition (R. gnavus 3 GUS; GUSi 0.137174 uM, Fig. 4c, triplicate): 0.1348% and -1.9775% and 2.5447% | R. gnavus 3 GUS % inhibition (R. gnavus 3 GUS; [8]): 15.6836% and 27.3384% | inhibition at 1.23457 µM (R. gnavus 3 GUS; [8]): 17.8% | R. gnavus 3 GUS % inhibition (R. gnavus 3 GUS; [9]): 45.7722% and 58.3391% | inhibition at 3.7037 µM (R. gnavus 3 GUS; [9]): 46.7% | R. gnavus 3 GUS % inhibition (R. gnavus 3 GUS; [10]): 62.2571% and 74.9484% | inhibition at 11.1111 µM (R. gnavus 3 GUS; [10]): 64.9% | R. gnavus 3 GUS % inhibition (R. gnavus 3 GUS; [11]): 76.969% and 90.9388% | inhibition at 33.3333 µM (R. gnavus 3 GUS; [11]): 79.3% | R. gnavus 3 GUS % inhibition (R. gnavus 3 GUS; [12]): 87.2656% and 101.29% | inhibition at 100 µM (R. gnavus 3 GUS; [12]): 89.5% | IC50 (R. gnavus 3 GUS; conversion of TCS-G (200 µM) to TCS, FMN-binding GUS): 3.7 ± 0.5 µM | effect on TCS-G processing by fecal enzyme mixtures ex vivo ([2]; human fecal extracts, GUSi 10, 1 or 0.1 µM): inhibited TCS-G processing | % Inhibition ([2]; human fecal sample F3, 0.1 uM GUSi): 26.0315% and 22.661% and 26.9159% | % Inhibition ([2]; human fecal sample F3, 1 uM GUSi): 55.0638% and 49.4467% and 55.1636% | % Inhibition ([2]; human fecal sample F3, 10 uM GUSi): 63.3658% and 70.4225% and 80.8879% | % Inhibition ([2]; human fecal sample M1, 0.1 uM GUSi): 43.1579% and 25.7515% and 43.5009% | % Inhibition ([2]; human fecal sample M1, 1 uM GUSi): 77.2204% and 69.1166% and 76.6073% | % Inhibition ([2]; human fecal sample M1, 10 uM GUSi): 87.4836% and 92.1188% and 91.6683% | % Inhibition ([2]; human fecal sample M3, 1 uM GUSi): 44.8187% and 47.2169% and 47.9485% | % Inhibition ([2]; human fecal sample M3, 10 uM GUSi): 84.9872% and 79.6161% and 93.8804% | effect on body weight (C57BL/6 mice; [13]): little effects | effect on colon histology (C57BL/6 mice; [13]): little effects | effect on colon length (C57BL/6 mice; [13]): little effects | effect on colonic or systematic inflammation (C57BL/6 mice; [13]): little effects | IFN (Fig.S12e) (C57BL/6 mice; [14]): 0 | IL-6 (Fig.S12e) (C57BL/6 mice; [14]): 13.43 and 0 and 6.45 | IL-10 (Fig.S12e) (C57BL/6 mice; [14]): 37.4 and 0 and 198.61 and 44.6 and 23.86 | IL-12P70 (Fig.S12e) (C57BL/6 mice; [14]): 25.71 and 0 and 88.12 | MCP-1 (Fig.S12e) (C57BL/6 mice; [14]): 48.03 and 146.49 and 57.21 and 61.62 and 184.9 and 179.76 and 331.3 and 143.93 | TNF (Fig.S12e) (C57BL/6 mice; [14]): 60.3 and 20.04 and 10.87 and 8.58 and 0 and 48.52 and 31.51 and 26.47 | ifn (Fig.S12d) (C57BL/6 mice; [15]): 0.5314 and 0.5552 and 0.6727 and 2.025 and 1.546 and 2.975 and 0.7505 and 0.9593 | il6 (Fig.S12d) (C57BL/6 mice; [15]): 0.9822 and 0.6373 and 0.485 and 1.527 and 0.9215 and 0.6364 and 1.1212 and 1.239 | il17 (Fig.S12d) (C57BL/6 mice; [15]): 1.45 and 0.9375 and 0.5532 and 1.296 and 0.6529 and 0.514 and 0.9732 and 1.7301 | il-1b (Fig.S12d) (C57BL/6 mice; [15]): 1.675 and 3.673 and 1.563 and 0.709 and 1.249 and 2.221 and 3.587 and 1.198 | il-10 (Fig.S12d) (C57BL/6 mice; [15]): 1.7121 and 1.046 and 0.8638 and 1.378 and 1.892 and 1.921 and 0.8229 and 0.4425 | il-23 (Fig.S12d) (C57BL/6 mice; [15]): 1.384 and 0.7725 and 0.7614 and 1.398 and 2.3746 and 0.7478 and 0.414 and 0.4606 | mcp1 (Fig.S12d) (C57BL/6 mice; [15]): 1.246 and 0.6949 and 0.7972 and 1.205 and 1.387 and 0.8717 and 0.5743 and 0.5267 | tlr-4 (Fig.S12d) (C57BL/6 mice; [15]): 1.193 and 1.155 and 1.078 and 1.23 and 1.258 and 1.02 and 0.5994 and 0.6478 | tnf (Fig.S12d) (C57BL/6 mice; [15]): 0.9505 and 1.516 and 0.4248 and 0.7567 and 1.942 and 2.3131 and 2.563 and 2.05 | effect on cell growth (MTT) (MC38 cells; 24-h treatment, concentration up to 10 µM): little effect | Cell proliferation (Fig. S14) (MC38 cells; MC38, concentration 1, replicates): 97.1748 and 94.9589 and 98.929 and 107.192 and 94.0356 and 103.315 | Cell proliferation (Fig. S14) (MC38 cells; MC38, concentration 2, replicates): 103.453 and 99.2983 and 100.314 and 103.361 and 103.084 and 108.023 | Cell proliferation (Fig. S14) (MC38 cells; MC38, concentration 5, replicates): 85.9108 and 74.139 and 84.9875 and 91.9121 and 86.7418 and 84.0181 | Cell proliferation (Fig. S14) (MC38 cells; MC38, concentration 10, replicates): 68.784 and 87.3419 and 84.2489 and 91.7736 and 82.9102 | presence in colon tissues ([3]; 2 days after the final oral administration of GUSi (1 mg/kg)): detected | ratio of TCS to TCS-G in colon digesta ([3]; GUSi 1 mg/kg oral gavage, TCS via diet): significantly reduced | GUSi in colon tissue ([3]; TCS, individual mice): 4.6 pmol/g and 5.3 pmol/g and 18.7 pmol/g and 4.5 pmol/g and 2.1 pmol/g and 0.7 pmol/g and 6.2 pmol/g and 5.7 pmol/g and 12 pmol/g and 5.4 pmol/g | GUSi in colon tissue ([3]; Veh (no TCS), individual mice): 9 pmol/g and 9.3 pmol/g and 5.9 pmol/g and 9.8 pmol/g and 11.9 pmol/g and 9.9 pmol/g and 14 pmol/g and 8.6 pmol/g | solubility in water [4]: poorly solubilized | effect on the proliferation of epithelial cells [5]: no effect | effect on the diversity or composition of fecal microbiota (fecal microbiota): little effect

Oc1cc(Cl)ccc1Oc1ccc(Cl)cc1Cl [TCS, Triclosan]
TCS formed (mouse fecal bacteria): 17.00 pmol and 16.49 pmol and 18.41 pmol | TCS/TCSG in colon digesta ([3]; TCS-treated mice, no GUSi, individual mice): 69.2572 and 105.161 and 114.057 and 134.536 and 118.012 and 116.121 and 236.945 and 380.254 and 130.474 and 139.078 | No-Observed-Adverse-Effect Level (NOAEL) ([6]; ref 36 (reply to reviewers)): 25 to 40 mg/kg/day | calculated Acceptable Daily Intake (ADI) ([6]; ref 37 (reply to reviewers)): 0.25 to 0.4 mg/kg/day

O=C(O)C1OC(Oc2cc(Cl)ccc2Oc2ccc(Cl)cc2Cl)C(O)C(O)C1O (stereo not shown) [TCS-G, triclosan-glucuronide]
Catalytic efficiency ([7]; Enzyme: Fp 2-L1 M362A): 344000 M⁻¹ s⁻¹ and 207500 M⁻¹ s⁻¹ and 364600 M⁻¹ s⁻¹ | Catalytic efficiency ([7]; Enzyme: Fp 2-L1 M454A): 1202500 M⁻¹ s⁻¹ and 1255200 M⁻¹ s⁻¹ and 1243800 M⁻¹ s⁻¹ | Catalytic efficiency ([7]; Enzyme: Fp 2-L1 M455A): 1203800 M⁻¹ s⁻¹ and 1137600 M⁻¹ s⁻¹ and 1168500 M⁻¹ s⁻¹ | Catalytic efficiency ([7]; Enzyme: Fp 2-L1 Y479A): 0 M⁻¹ s⁻¹

Reference: publication PMC8748916, “Microbial enzymes induce colitis by reactivating triclosan in the mouse gastrointestinal tract” (Nature Communications, 2022)
